Measurements from US10087188B2, “Benzamide imidazopyrazine Btk inhibitors” (MERCK SHARP & DOHME CORP., priority 2014, dated 2018).

Each compound was assayed on HeLa cells (assay: [3H] Adenosine uptake assay). Conditions: Homo sapiens, HeLa, accumulation of tritiated adenosine into HeLa cells; compound concentration range 10 μM to 0.032 nM; read-out: ADU inhibition IC50 (adenosine uptake inhibition potency).
Assay type: cell-based
Description: Compounds are also screen in an adenosine uptake functional cellular assay using the protocol described below:
[^3H] Adenosine Uptake Assay Methods
Adenosine uptake activity was determined by monitoring the accumulation of tritiated adenosine into HeLa cells (ATCC catalog #CCL-2) using a PMT-based radiometric detection instrument. […] These cells were incubated overnight at 37° C. in a humidified atmosphere with 5% (v/v) CO2. After this time the growth medium was removed and replaced with 40 μL assay medium comprising: Hanks balanced salts solution (HBSS; Thermo Fisher Catalog #SH30268.01)+5% (v/v) FBS. Compound stock solutions in DMSO were diluted in assay medium to 2.5× final compound concentration maintaining a constant DMSO concentration of 0.25% (v/v). 40 μL of compound in assay medium was dispensed into individual wells of the Cytostar-T plates and the plates were incubated for 30 minutes under ambient laboratory conditions. Following this incubation, 20 μL of 500 nM[^3H] adenosine (American Radiolabeled Chemicals Inc. Catalog #ART0287) in assay medium was added and incubated for a further 60 minutes under ambient laboratory conditions. The amount of radiolabel accumulation was then determined using a Perkin Elmer Topcount NXT microplate reader. In brief, HeLa cells adhere to the bottom of the Cytostar-T plate, uptake of [^3H]adenosine into these cells brings the radiolabel into sufficient proximity to excite the scintillant in the base of the plates. These events are captured by single PMT, time-resolved coincidence counting. IC50 values were determined by 4 parameter robust fit of counts per second values vs. (Log10) compound concentrations.

IC50 [µM] | SMILES
7.98 | Nc1nccn2c([C@@H]3CC[C@@H](CC(=O)O)C3)nc(-c3ccc(C(=O)Nc4cc(C(F)(F)F)ccn4)cc3)c12 [Example 55, {(1R,3R)-3-[8-amino-1-(4-{[4-(trifluoromethyl)pyridin-2-yl]carbamoyl}phenyl)imidazo[1,5-a]pyrazin-3-yl]cyclopentyl}acetic acid]

Same assay, conditions: Homo sapiens; accumulation of tritiated adenosine into HeLa cells; compound concentration range 10 μM to 0.032 nM; read-out: ADU inhibition IC50 (adenosine uptake inhibition potency)

SMILES | IC50 [µM]
C[C@]1(C(=O)O)CC[C@@H](c2nc(-c3ccc(C(=O)Nc4cc(C(F)(F)F)ccn4)cc3)c3c(N)nccn23)C1 [Example 37, (1S,3R)-3-[8-amino-1-(4-{[4-(trifluoromethyl)pyridin-2-yl]carbamoyl}phenyl)imidazo[1,5-a]pyrazin-3-yl]-1-methylcyclopentane-carboxylic acid] | 8.55
CC(C)[C@H]1CC[C@@H](c2nc(-c3ccc(C(=O)Nc4cc(C(F)(F)F)ccn4)cc3)c3c(N)nccn23)C[C@H]1C(=O)O [Example 99, (1R,2R,5R)-5-[8-amino-1-(4-{[4-(trifluoromethyl)pyridin-2-yl]carbamoyl}phenyl)imidazo[1,5-a]pyrazin-3-yl]-2-(1-methylethyl) cyclohexane-carboxylic acid] | 2.51
C[C@]1(C(=O)O)CCC[C@@H](c2nc(-c3ccc(C(=O)Nc4cc(C(F)(F)F)ccn4)cc3)c3c(N)nccn23)C1 [Example 154, (1S,3R)-3-[8-amino-1-(4-{[4-(trifluoromethyl)pyridin-2-yl]carbamoyl}phenyl)imidazo[1,5-a]pyrazin-3-yl]-1-methylcyclohexane-carboxylic acid] | 10
Nc1nccn2c([C@@H]3C[C@@H]4[C@H](C3)[C@H]4C(=O)O)nc(-c3ccc(C(=O)Nc4cc(C(F)(F)F)ccn4)cc3)c12 [Example 125, (1R,3R,5S,6r)-3-[8-amino-1-(4-{[4-(trifluoromethyl)pyridin-2-yl]carbamoyl}phenyl)imidazo[1,5-a]pyrazin-3-yl]bicyclo[3.1.0]hexane-6-carboxylic acid] | 2.69
CC(C)[C@]1(C(=O)O)CCC[C@@H](c2nc(-c3ccc(C(=O)Nc4cc(C(F)(F)F)ccn4)cc3)c3c(N)nccn23)C1 [Example 89, (1S,3R)-3-[8-amino-1-(4-{[4-(trifluoromethyl)pyridin-2-yl]carbamoyl}phenyl)imidazo[1,5-a]pyrazin-3-yl]-1-(1-methylethyl) cyclohexane-carboxylic acid] | 3.41
Nc1nccn2c([C@H]3C[C@@H]4[C@H](C3)[C@@H]4C(=O)O)nc(-c3ccc(C(=O)Nc4cc(C(F)(F)F)ccn4)cc3)c12 [Example 140, (1R,3r,5S,6s)-3-[8-amino-1-(4-{[4-(trifluoromethyl)pyridin-2-yl]carbamoyl}phenyl)imidazo[1,5-a]pyrazin-3-yl]bicyclo[3.1.0] hexane-6-carboxylic acid] | 10
Nc1nccn2c([C@H]3C[C@@H]4[C@H](C3)[C@H]4C(=O)O)nc(-c3ccc(C(=O)Nc4cc(C(F)(F)F)ccn4)cc3)c12 [Example 139, (1R,3R,5S,6r)-3-[8-amino-1-(4-{[4-(trifluoromethyl)pyridin-2-yl]carbamoyl}phenyl)imidazo[1,5-a]pyrazin-3-yl]bicyclo[3.1.0] hexane-6-carboxylic acid] | 10
CC(C)[C@@]1(C(=O)O)CC[C@H](c2nc(-c3ccc(C(=O)Nc4cc(C(F)(F)F)ccn4)cc3)c3c(N)nccn23)C1 [Example 48, (1R,3S)-3-[8-amino-1-(4-{[4-(trifluoromethyl)pyridin-2-yl]carbamoyl}phenyl)imidazo[1,5-a]pyrazin-3-yl]-1-(1-methylethyl) cyclopentane-carboxylic acid] | 3.76
CC(C)[C@]1(C(=O)O)CC[C@H](c2nc(-c3ccc(C(=O)Nc4cc(C(F)(F)F)ccn4)cc3)c3c(N)nccn23)C1 [Example 49, (1S,3S)-3-[8-amino-1-(4-{[4-(trifluoromethyl)pyridin-2-yl]carbamoyl}phenyl)imidazo[1,5-a]pyrazin-3-yl]-1-(1-methylethyl) cyclopentane-carboxylic acid] | 0.922
